Test results taken from US20140011778A1, “2-METHYLENE-19,23,24-TRINOR-1ALPHA-HYDROXYVITAMIN D3” (Wisconsin Alumni Research Foundation, priority 2011, published 2014).
Where two headings read alike, the source gives them in different places.

Assays:
[1] = molecular target: T1, Full-length recombinant rat receptor (vitamin D receptor) (Rattus norvegicus, UniProt P13053); conditions: comparison compound from an earlier filing; read-out: Competitive VDR Binding, Ki; cited from earlier work
T1 construct: Full-length recombinant rat receptor was expressed in E. coli; histidine tag (C); made in house; host or cells: E. coli BL21(DE3) Codon Plus RIL
T1 sequence (P13053 1-423): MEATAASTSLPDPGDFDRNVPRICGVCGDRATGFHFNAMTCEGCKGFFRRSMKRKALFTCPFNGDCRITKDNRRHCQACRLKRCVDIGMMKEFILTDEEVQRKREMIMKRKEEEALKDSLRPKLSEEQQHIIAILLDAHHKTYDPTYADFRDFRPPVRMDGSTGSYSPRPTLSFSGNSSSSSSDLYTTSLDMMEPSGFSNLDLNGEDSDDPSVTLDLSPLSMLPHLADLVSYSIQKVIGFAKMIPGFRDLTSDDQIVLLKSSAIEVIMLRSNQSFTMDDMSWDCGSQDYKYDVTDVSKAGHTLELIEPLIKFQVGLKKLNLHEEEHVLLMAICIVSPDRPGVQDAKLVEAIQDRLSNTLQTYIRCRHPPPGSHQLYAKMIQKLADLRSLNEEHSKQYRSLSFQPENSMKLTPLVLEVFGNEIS

[2] = tested on: 24-hydroxylase (24OHase) gene promoter; assay: In vitro transcription assay (24OHase promoter-luciferase in ROS 17/2.8 cells); assay type: cell-based; conditions: for 24OHase Transcription (Relative Activity): (value for native hormone)/(value for working example), same assay
Experimental: Transcription activity was measured in ROS 17/2.8 (bone) cells that were stably transfected with a 24-hydroxylase (24OHase) gene promoter upstream of a luciferase reporter gene (Arbour et al., 1998). Cells were given a range of doses. Sixteen hours after dosing, the cells were harvested and luciferase activities were measured using a luminometer. RLU=relative luciferase units.

Sprague-Dawley rats = assay: Intestinal calcium transport (everted gut sac); assay type: in vivo, rat; conditions: for serosal calcium to mucosal calcium ratio: rat, at 780 pM (so in the source)
Experimental: Male, weanling Sprague-Dawley rats were placed on Diet 11 (0.47% Ca) diet+AEK oil for one week followed by Diet 11 (0.02% Ca)+AEK oil for 3 weeks. The rats were then switched to a diet containing 0.47% Ca for one week followed by two weeks on a diet containing 0.02% Ca. Dose administration began during the last week on 0.02% calcium diet. Four consecutive intraperitoneal doses were given approximately 24 hours apart. Twenty-four hours after the last dose, blood was collected from the severed neck and the concentration of serum calcium determined as a measure of bone calcium mobilization. The first 10 cm of the intestine was also collected for intestinal calcium transport analysis using the everted gut sac method.

[3] = molecular target: T1, Full-length recombinant rat receptor (vitamin D receptor); assay: Vitamin D receptor competitive binding; conditions: recombinant rat VDR, 3H-1,25(OH)2D3 1 nM
Experimental: Full-length recombinant rat receptor was expressed in E. coli BL21(DE3) Codon Plus RIL cells and purified to homogeneity using two different column chromatography systems. The first system was a nickel affinity resin that utilizes the C-terminal histidine tag on this protein. The protein that was eluted from this resin was further purified using ion exchange chromatography (S-Sepharose Fast Flow). Aliquots of the purified protein were quick frozen in liquid nitrogen and stored at −80° C. until use. For use in binding assays, the protein was diluted in TEDK50 (50 mM Tris, 1.5 mM EDTA, pH 7.4, 5 mM DTT, 150 mM KCl) with 0.1% Chaps detergent. The receptor protein and ligand concentration was optimized such that no more than 20% of the added radiolabeled ligand was bound to the receptor.
Unlabeled ligands were dissolved in ethanol and the concentrations determined using UV spectrophotometry (1,25(OH)2D3: molar extinction coefficient=18,200 and λmax=265 nm; Analogs: molar extinction coefficient=42,000 and λmax=252 nm). Radiolabeled ligand (^3H-1,25(OH)2D3, ˜159 Ci/mmole) was added in ethanol at a final concentration of 1 nM.
Radiolabeled and unlabeled ligands were added to 100 mcl of the diluted protein at a final ethanol concentration of ≦10%, mixed and incubated overnight on ice to reach binding equilibrium. […] Total binding was determined from the tubes containing only radiolabeled ligand.

[4] = tested on: Human promyelocytic leukemia (HL60) cells; assay: HL-60 differentiation (nitro blue tetrazolium reduction); assay type: cell-based; conditions: for HL-60 Differentiation (Relative Activity): (value for native hormone)/(value for working example), same assay; for EC50: Homo sapiens, 96 h, HL-60 cells into monocytes, 4 days
Experimental: The study drugs were dissolved in ethanol and the concentrations determined using UV spectrophotometry. Serial dilutions were prepared so that a range of drug concentrations could be tested without changing the final concentration of ethanol (≦0.2%) present in the cell cultures.
Human promyelocytic leukemia (HL60) cells were grown in RPMI-1640 medium containing 10% fetal bovine serum. The cells were incubated at 37° C. in the presence of 5% CO2.
HL60 cells were plated at 1.2×10^5 cells/ml. Eighteen hours after plating, cells in duplicate were treated with the drug. Four days later, the cells were harvested and a nitro blue tetrazolium reduction assay was performed (Collins et al., 1979; J. Exp. Med. 149:969-974). The percentage of differentiated cells was determined by counting a total of 200 cells and recording the number that contained intracellular black-blue formazan deposits. Verification of differentiation to monocytic cells was determined by measuring phagocytic activity (data not shown).

[5] = ROS 17/2.8 cells, luciferase, 16 h, read-out: 24OHase Transcription, EC50

EC50 [2, 5]	Ki [3]	EC50 [4]	Compound	Ki [1]	24OHase Transcription (Relative Activity) [2]	serosal calcium to mucosal calcium ratio (Sprague-Dawley rats)	HL-60 Differentiation (Relative Activity) [4]	other results
			C=C1C(O)CC(=CC=C2CCCC3(C)C2CCC3C(C)CCC)CC1O [2MtrisP, 2-methylene-19-nor-(20S)-1α-hydroxytrishomopregnacalciferol]	0.075 nM				
			C=C1C(O)CC(=CC=C2CCCC3(C)C2CCC3C(C)CC)CC1O [(20R)-2MbisP, 2-methylene-19-nor-(20R)-1α-hydroxybishomopregnacalciferol]	0.078 nM				
100 nM	4 nM	6000 nM	C=C1[C@H](O)CC(=C/C=C2\CCC[C@]3(C)[C@@H]([C@H](C)CC(C)C)CC[C@@H]23)C[C@H]1O [RMB, (20R)-2-methylene-19,23,24-trinor-1α-hydroxyvitamin D3]		0.003	0.9	0.0005	less active than (20R)-2MbisP in hydroxylase transcription ([2]; ratio of relative activities 0.05/0.003): more than 16 times; less active than (20R)-2MbisP in differentiation of HL-60 cells ([4]; ratio of relative activities 0.18/0.0005): approximately 360 times
8 nM	0.4 nM	40 nM	C=C1[C@H](O)CC(=C/C=C2\CCC[C@]3(C)[C@@H]([C@@H](C)CC(C)C)CC[C@@H]23)C[C@H]1O [SMB, (20S)-2-methylene-19,23,24-trinor-1α-hydroxyvitamin D3]		0.04		0.08	EC50 ([2]; FIG. 3, read-out: EC50 with respect to increasing transcription of the 24-hydroxylase gene): 8000 nM; intestinal calcium transport activity lower than that of the native hormone (Sprague-Dawley rats; 7020 pmol SMB similar to 87 pmol native hormone): approximately 80 times; less active than 2MtrisP in HL-60 differentiation, normalized against native hormone ([4]; ratio of relative activities 1.2/0.08): ≈ 15
			C=C1/C(=C\C=C2/CCC[C@]3(C)[C@@H]([C@H](C)CCCC(C)(C)O)CC[C@@H]23)C[C@@H](O)C[C@@H]1O [native hormone, 1α,25-dihydroxyvitamin D3, reference compound]			4.1		
